This data set has as its system CCRIS mutagenicity, Ames/micronucleus/aberration tests. The data set is described as follows: CCRIS mutagenicity studies.
Setting [1] is: Test System: AMES SALMONELLA TYPHIMURIUM, Strain/Indicator: TA98, Metabolic Activation: RAT, LIVER, S-9, AROCLOR 1254, Method: STANDARD PLATE.
Where [2] appears, read: Test System: AMES SALMONELLA TYPHIMURIUM, Strain/Indicator: TA98, Metabolic Activation: NONE, Method: PREINCUBATION
Setting [3] is: Test System: AMES SALMONELLA TYPHIMURIUM, Strain/Indicator: TA100, Metabolic Activation: NONE, Method: PREINCUBATION

Active and inactive are the calls of the source. No rule for the calls is given here.

In the case of `CCOC(=O)Nc1cccc2c1CN(C)CC2c1ccc(Cl)cc1` (centres undefined), the mutagenic call is, setting by setting: (Test System: AMES SALMONELLA TYPHIMURIUM, Strain/Indicator: TA98, Metabolic Activation: NONE) “inactive; negative”; (Test System: AMES SALMONELLA TYPHIMURIUM, Strain/Indicator: TA98, Metabolic Activation: S-9) “inactive; negative”; (Test System: AMES SALMONELLA TYPHIMURIUM, Strain/Indicator: TA100, Metabolic Activation: NONE) “inactive; negative”; (Test System: AMES SALMONELLA TYPHIMURIUM, Strain/Indicator: TA100, Metabolic Activation: S-9) “inactive; negative”; (Test System: AMES SALMONELLA TYPHIMURIUM, Strain/Indicator: TA1535, Metabolic Activation: NONE) “inactive; negative”; (Test System: AMES SALMONELLA TYPHIMURIUM, Strain/Indicator: TA1535, Metabolic Activation: S-9) “inactive; negative”. For the same compound, the mutagenic call reads like this: (Test System: AMES SALMONELLA TYPHIMURIUM, Strain/Indicator: TA1537, Metabolic Activation: NONE) “inactive; negative”; (Test System: AMES SALMONELLA TYPHIMURIUM, Strain/Indicator: TA1537, Metabolic Activation: S-9) “inactive; negative”; (Test System: AMES SALMONELLA TYPHIMURIUM, Strain/Indicator: TA1538, Metabolic Activation: NONE) “inactive; negative”; (Test System: AMES SALMONELLA TYPHIMURIUM, Strain/Indicator: TA1538, Metabolic Activation: S-9) “inactive; negative”.

As for `O=P(O)(O)OCC(O)CO` (centres undefined), the mutagenic call is “inactive; negative” (Test System: AMES SALMONELLA TYPHIMURIUM, Strain/Indicator: TA98, Metabolic Activation: NONE, Method: STANDARD PLATE); “inactive; negative” under setting [1]; “inactive; negative” (Test System: AMES SALMONELLA TYPHIMURIUM, Strain/Indicator: TA100, Metabolic Activation: NONE, Method: STANDARD PLATE); “inactive; negative” (Test System: AMES SALMONELLA TYPHIMURIUM, Strain/Indicator: TA100, Metabolic Activation: RAT, LIVER, S-9, AROCLOR 1254, Method: STANDARD PLATE); “inactive; negative” (Test System: AMES SALMONELLA TYPHIMURIUM, Strain/Indicator: TA1535, Metabolic Activation: NONE, Method: STANDARD PLATE); “inactive; negative” (Test System: AMES SALMONELLA TYPHIMURIUM, Strain/Indicator: TA1535, Metabolic Activation: RAT, LIVER, S-9, AROCLOR 1254, Method: STANDARD PLATE). Further, the mutagenic call is “inactive; negative” (Test System: AMES SALMONELLA TYPHIMURIUM, Strain/Indicator: TA1537, Metabolic Activation: NONE, Method: STANDARD PLATE); “inactive; negative” (Test System: AMES SALMONELLA TYPHIMURIUM, Strain/Indicator: TA1537, Metabolic Activation: RAT, LIVER, S-9, AROCLOR 1254, Method: STANDARD PLATE); “inactive; negative” (Test System: AMES SALMONELLA TYPHIMURIUM, Strain/Indicator: TA1538, Metabolic Activation: NONE, Method: STANDARD PLATE); “inactive; negative” (Test System: AMES SALMONELLA TYPHIMURIUM, Strain/Indicator: TA1538, Metabolic Activation: RAT, LIVER, S-9, AROCLOR 1254, Method: STANDARD PLATE); “inactive; negative” (Test System: E. COLI, Strain/Indicator: WP2, Metabolic Activation: NONE, Method: STANDARD PLATE); “inactive; negative” (Test System: E. COLI, Strain/Indicator: WP2, Metabolic Activation: RAT, LIVER, S-9, AROCLOR 1254, Method: STANDARD PLATE).

For the compound `NNC(=O)c1[nH]c2ccccc2c1N`, the mutagenic call was “active; positive” (Test System: AMES SALMONELLA TYPHIMURIUM, Strain/Indicator: TA97, Metabolic Activation: NONE, Method: PREINCUBATION); “inactive; negative” (Test System: AMES SALMONELLA TYPHIMURIUM, Strain/Indicator: TA97, Metabolic Activation: S-9 (10%), Method: PREINCUBATION); “active; positive” under setting [2]; “inactive; negative” (Test System: AMES SALMONELLA TYPHIMURIUM, Strain/Indicator: TA98, Metabolic Activation: S-9 (10%), Method: PREINCUBATION); “inactive; negative” under setting [3]; “inactive; negative” (Test System: AMES SALMONELLA TYPHIMURIUM, Strain/Indicator: TA100, Metabolic Activation: S-9 (10%), Method: PREINCUBATION). Besides, the mutagenic call by setting is: (Test System: AMES SALMONELLA TYPHIMURIUM, Strain/Indicator: TA102, Metabolic Activation: NONE, Method: PREINCUBATION) “inactive; negative”; (Test System: AMES SALMONELLA TYPHIMURIUM, Strain/Indicator: TA102, Metabolic Activation: S-9 (10%), Method: PREINCUBATION) “inactive; negative”.

Consider `Cc1ccc2c(c1)c(C)c1c3ccccc3nc-1n2C`, for which the mutagenic call reads like this: (Test System: AMES SALMONELLA TYPHIMURIUM, Strain/Indicator: TA97, Metabolic Activation: RAT, LIVER, S-9, AROCLOR 1254, Method: STANDARD PLATE) “active; positive”; under setting [1], “active; positive”; (Test System: AMES SALMONELLA TYPHIMURIUM, Strain/Indicator: TA102, Metabolic Activation: RAT, LIVER, S-9, AROCLOR 1254, Method: STANDARD PLATE) “active; positive”.

Consider `O=Nc1cc2c3ccccc3ccc2c2ccccc12`, for which the mutagenic call is, setting by setting: under setting [2], “active; positive”; (Test System: AMES SALMONELLA TYPHIMURIUM, Strain/Indicator: TA98, Metabolic Activation: RAT, LIVER, S-9, AROCLOR 1254, Method: PREINCUBATION) “active; positive”; under setting [3], “active; positive”; (Test System: AMES SALMONELLA TYPHIMURIUM, Strain/Indicator: TA100, Metabolic Activation: RAT, LIVER, S-9, AROCLOR 1254, Method: PREINCUBATION) “active; positive”; (Test System: CHINESE HAMSTER OVARY, Strain/Indicator: CHO-K1-BH4 (HGPRT)/6-THIOGUANINE, Metabolic Activation: NONE, Method: STANDARD PLATE) “active; positive”; (Test System: CHINESE HAMSTER OVARY, Strain/Indicator: CHO-UV5 (HGPRT)/6-THIOGUANINE, Metabolic Activation: NONE, Method: STANDARD PLATE) “active; positive”.
